Experimental data published in patent publication US6777237B2, “Bioconjugates and delivery of bioactive agents” (University of Utah Research Foundation, priority 1996, dated 2004).

Experiments:
Meth-A cell line = assay: MTT cell viability assay, Meth-A cell line; type: cell-based, mouse
HL-60 cell line = assay: MTT cell viability assay, HL-60 cell line; type: cell-based, human; conditions: for IC50: HL-60
B-16 cell line = assay: MTT cell viability assay, B-16 cell line; type: cell-based, mouse
HCT-116 cell line = assay: MTT cell viability assay, HCT-116 cell line; type: cell-based, human; conditions: for IC50: HCT-116
RD-995 cell line = assay: MTT cell viability assay, RD-995 cell line; type: cell-based, mouse
[1] = Thermal stability of bioconjugates in media (UV-vis, then photolysis check); type: physicochemical
[2] = Anaerobic continuous-wave photolysis of methylcob(III)alamin; type: physicochemical; conditions: 514 nm light from an Argon-ion laser
Description: A protocol for a typical anaerobic continuous-wave photolysis of methylcob(III)alamin or CH3Cbl^III is as follows. An aqueous solution of 200 μM CH3Cbl^III and 50 mM K^+ Hepes pH 7.3 is placed in a 1 cm quartz cuvette. Samples that are to be photolyzed under anaerobic conditions are either subjected to repeated freeze-pump-thaw cycles, or purged with Ar for 40 minutes immediately prior to photolysis and sealed. Continuous-wave visible light irradiation is accomplished at the desired wavelength with an Ar^+ pumped dye laser. The incident light on the face of the cuvette is reduced to 12 mW cm^−2 with neutral density filters. The light flux is determined by potassium ferrioxalate actinomety and by a Scientech surface-reading thermopile. The cuvette is placed in a thermostated cell holder at 25-37° C. […] The magnetic field within the area of the cuvette is homogeneous to within 2% and the long term stability is better than 0.5% as monitored by a transverse Hall probe and digital teslameter.
Absorption spectra from 300-600 nm are recorded in one second with a diode array spectrophotometer at variable time intervals from 10 seconds to 2 minutes (depending upon the fluence of the photolyzing light source) for a total of 3 τ1/2. […] The concentration of CH3Cbl^III is determined using the measured absorbance at 350 or 520 nm by the method of Chen and Chance (1993). […]

[3] = Photolysis (10 min irradiation, 1 h after treatment)
[4] = Mus musculus, unconjugated chlorambucil
[5] = Homo sapiens, unconjugated chlorambucil

## 2-[4-(4′-[bis-(2-chloroethyl)amino]phenyl)butyroxy]ethylcob(III)alamin [compound 3]
Meth-A cell line; No Photolysis
  IC50: 210 µM
Meth-A cell line; [3]
  IC50: 0.2 µM
HL-60 cell line; HL-60, FIG. 6, bioconjugate, no photolysis
  LD50: 0.2 µM
HL-60 cell line; HL-60, FIG. 6, no photolysis
  fold better than unconjugated chlorambucil standard (LD50): at least 2 fold
HL-60 cell line; HL-60, FIG. 6, with addition of 10 equivalents of vitamin B12, no photolysis
  toxicity: absence of toxicity
HL-60 cell line; No Photolysis
  IC50: 3.2 µM
B-16 cell line; [3]
  IC50: 0.6 µM
HCT-116 cell line; HCT-116, FIG. 5, brief irradiation with red light 12 hours after dosing
  LD50: 0.08 µM
HCT-116 cell line; HCT-116, FIG. 5, no photolysis, at concentrations approaching 100 μM
  toxicity: no substantial toxicity
HCT-116 cell line; HCT-116, FIG. 5, photolysis with 10-fold excess of vitamin B12 added
  LD50: 2 µM
HCT-116 cell line; [3]
  IC50: 1.7 µM
RD-995 cell line; [3]
  IC50: 0.2 µM
[1]
  thermal lability: thermal lability

## 4-[4′-(bis-[2-chloroethyl]amino)phenyl]butyroylcob(III)alamin [compound 4]
Meth-A cell line; No Photolysis
  IC50: 84.2 µM
Meth-A cell line; [3]
  IC50: 0.3 µM
HL-60 cell line; No Photolysis
  IC50: 8.9 µM
B-16 cell line; [3]
  IC50: 0.3 µM
HCT-116 cell line; [3]
  IC50: 1.1 µM
RD-995 cell line; [3]
  IC50: 0.3 µM
[1]
  thermal lability: thermal lability

## C/C1=C2/[N-][C@H]([C@H](CC(N)=O)[C@@]2(C)CCC(=O)NC[C@@H](C)OP(=O)([O-])O[C@H]2[C@@H](O)[C@@H](n3cnc4cc(C)c(C)cc43)O[C@@H]2CO)[C@]2(C)N=C(/C(C)=C3N=C(/C=C4N=C1[C@@H](CCC(N)=O)C\4(C)C)[C@@H](CCC(N)=O)[C@]\3(C)CC(N)=O)[C@@H](CCC(N)=O)[C@]2(C)CC(N)=O.[CH3-].[Co] [CH3Cbl^III, methylcob(III)alamin]
[2]
  photolysis quantum yield: about 0.3

## O=C(O)CCCc1ccc(N(CCCl)CCCl)cc1 [Chlorambucil, reference compound]
Meth-A cell line; [4]
  IC50: 1.8 µM
HL-60 cell line; HL-60, FIG. 6, unconjugated chlorambucil standard
  LD50: 0.5 µM
HL-60 cell line; [5]
  IC50: 5.8 µM
B-16 cell line; Mus musculus, B16, unconjugated chlorambucil
  IC50: 1.4 µM
HCT-116 cell line; HCT-116, FIG. 5, chlorambucil alone
  LD50: about 2 μM
HCT-116 cell line; [5]
  IC50: 20.8 µM
RD-995 cell line; [4]
  IC50: 1.1 µM
